In PubChem BioAssay AID330 (DTP/NCI, 2004):
Where “and” joins values, the source holds several entries; their conditions need not be identical. Equal entries are not always repeated. Toxic doses and inconclusive results are not listed. Rule for the calls: active = survival T/C of 150% or more; inactive = T/C below 125% in these data.

System: P388 leukemia ip, CD2F1 mice, survival T/C
Experiment: NCI In Vivo Anticancer Drug Screen. Data for tumor model P388 Leukemia (intraperitoneal) in CD2F1 (CDF1) mice
Conditions: endpoint: median survival time, higher = longer survival
In short: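 Mice carrying the transplanted tumor received test compound or vehicle. Survival was recorded in each group, and the value is the treated-group measurement divided by that of the vehicle-treated control group.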

[1] = dose: 12.5 mg/kg/injection, schedule: Q01DX009 (ip), vehicle: saline
[2] = dose: 25.0 mg/kg/injection, schedule: Q01DX009 (ip), vehicle: saline
[3] = dose: 100.0 mg/kg/injection, schedule: Q01DX009 (ip), vehicle: saline with Tween-80
[4] = dose: 100.0 mg/kg/injection, schedule: Q04DX003 (ip), vehicle: saline with Tween-80
[5] = dose: 200.0 mg/kg/injection, schedule: Q01DX009 (ip), vehicle: saline with Tween-80
[6] = dose: 25.0 mg/kg/injection, schedule: Q01DX009 (ip), vehicle: saline with Tween-80
[7] = dose: 50.0 mg/kg/injection, schedule: Q01DX009 (ip), vehicle: Klucel (hydroxypropylcellulose) (HPC)
[8] = dose: 50.0 mg/kg/injection, schedule: Q01DX005 (ip), vehicle: Klucel (hydroxypropylcellulose) (HPC)
[9] = dose: 100.0 mg/kg/injection, schedule: Q01DX005 (ip), vehicle: Klucel (hydroxypropylcellulose) (HPC)
[10] = dose: 200.0 mg/kg/injection, schedule: Q01DX005 (ip), vehicle: Klucel (hydroxypropylcellulose) (HPC)
[11] = dose: 50.0 mg/kg/injection, schedule: Q01DX009 (ip), vehicle: saline with Tween-80

Measured: T/C

CCN(CC)CCCOC(=O)c1ccc(N)cc1
inactive: [1] 100 % of control | dose: 12.5 mg/kg/injection, schedule: Q04DX003 (ip), vehicle: saline 91 % of control | [2] 109 % of control | dose: 25.0 mg/kg/injection, schedule: Q04DX003 (ip), vehicle: saline 91 % of control | dose: 50.0 mg/kg/injection, schedule: Q01DX009 (ip), vehicle: saline 104 % of control | dose: 50.0 mg/kg/injection, schedule: Q04DX003 (ip), vehicle: saline 87 % of control

COC(=O)C1CCC2c3ccccc3C(C1)c1ccccc12 (configuration not stated)
inactive: [3] 90 % of control | [4] 90 % of control | [5] 118 % of control | dose: 200.0 mg/kg/injection, schedule: Q04DX003 (ip), vehicle: saline with Tween-80 100 % of control | dose: 400.0 mg/kg/injection, schedule: Q01DX009 (ip), vehicle: saline with Tween-80 118 % of control | dose: 400.0 mg/kg/injection, schedule: Q04DX003 (ip), vehicle: saline with Tween-80 100 % of control

COc1ccc(C)cc1C(CC(=O)O)CC(=O)N(CCCl)CCCl (configuration not stated)
inactive: dose: 100.0 mg/kg/injection, schedule: Q04DX003 (ip), vehicle: saline 102 % of control | dose: 200.0 mg/kg/injection, schedule: Q04DX003 (ip), vehicle: saline 100 % of control | dose: 400.0 mg/kg/injection, schedule: Q04DX003 (ip), vehicle: saline 102 % of control

CSC(=S)NN=C1CCCC1
inactive: dose: 12.5 mg/kg/injection, schedule: Q01DX009 (ip), vehicle: saline with Tween-80 101 % of control | [6] 101 % of control

CC(C)=CCC(O)/C(C)=C/CC/C(=C/CC/C(C)=C/CO)CO (configuration not stated)
inactive: dose: 3.88 mg/kg/injection, schedule: Q01DX005 (ip), vehicle: Klucel (hydroxypropylcellulose) (HPC) 93 % of control | dose: 7.75 mg/kg/injection, schedule: Q01DX005 (ip), vehicle: Klucel (hydroxypropylcellulose) (HPC) 100 % of control | dose: 15.5 mg/kg/injection, schedule: Q01DX005 (ip), vehicle: Klucel (hydroxypropylcellulose) (HPC) 102 % of control | dose: 31.0 mg/kg/injection, schedule: Q01DX005 (ip), vehicle: Klucel (hydroxypropylcellulose) (HPC) 102 % of control

N=C=S.N=C=S.O=[N+]([O-])O.[Co+3].[NH2-].[NH2-].[NH2-].[NH2-]
inactive: [7] 113 % of control

CC/C=C/C(O)C(O)C1=C(C)C(=O)C2(O1)C(=O)NC(OC)(C(=O)c1ccccc1)C2O (configuration not stated)
inactive: dose: 12.5 mg/kg/injection, schedule: Q01DX005 (ip), vehicle: Klucel (hydroxypropylcellulose) (HPC) 99 % of control | dose: 25.0 mg/kg/injection, schedule: Q01DX005 (ip), vehicle: Klucel (hydroxypropylcellulose) (HPC) 99 % of control | [8] 94 % of control | [9] 96 % of control | dose: 150.0 mg/kg/injection, schedule: Q01DX005 (ip), vehicle: Klucel (hydroxypropylcellulose) (HPC) 103 % of control | [10] 106 % of control

CN(C)CCCN1c2ccccc2Oc2ccc(Cl)cc21
inactive: dose: 50.0 mg/kg/injection, schedule: Q01DX005 (ip), vehicle: saline 105 % of control | dose: 100.0 mg/kg/injection, schedule: Q01DX005 (ip), vehicle: saline 106 % of control

CCOC(=S)SCC(=O)C1(O)Cc2c(O)c3c(c(O)c2C(OC2CC(N)C(O)C(C)O2)C1)C(=O)c1c(OC)cccc1C3=O (configuration not stated)
inactive: dose: 1.56 mg/kg/injection, schedule: Q01DX009 (ip), vehicle: other 120 % of control | dose: 3.13 mg/kg/injection, schedule: Q01DX009 (ip), vehicle: other 123 % of control | dose: 37.5 mg/kg/injection, schedule: Q04DX003 (ip), vehicle: other 121 % of control | dose: 75.0 mg/kg/injection, schedule: Q04DX003 (ip), vehicle: other 94 % of control | dose: 150.0 mg/kg/injection, schedule: Q04DX003 (ip), vehicle: other 99 % of control

CSc1nc(Cl)cc(Sc2nc(N)nc3nc[nH]c23)n1
inactive: dose: 12.5 mg/kg/injection, schedule: Q01DX009 (ip), vehicle: Klucel (hydroxypropylcellulose) (HPC) 98 % of control | dose: 25.0 mg/kg/injection, schedule: Q01DX009 (ip), vehicle: Klucel (hydroxypropylcellulose) (HPC) 101 % of control and 107 % of control | [7] 123 % of control and 124 % of control

O=C(O)CNC(=O)CNc1nc(Cl)nc(NCC(=O)NCC(=O)O)n1
inactive: dose: 60.0 mg/kg/injection, schedule: Q01DX005 (ip), vehicle: Klucel (hydroxypropylcellulose) (HPC) 97 % of control | dose: 120.0 mg/kg/injection, schedule: Q01DX005 (ip), vehicle: Klucel (hydroxypropylcellulose) (HPC) 96 % of control | dose: 240.0 mg/kg/injection, schedule: Q01DX005 (ip), vehicle: Klucel (hydroxypropylcellulose) (HPC) 93 % of control

NC(Cc1cc(I)c(O)c(I)c1)C(=O)O (configuration not stated)
inactive: [11] 110 % of control | [3] 108 % of control | [5] 88 % of control

c1ccc(CN2CCC(N3CNc4ccccc43)CC2)cc1
inactive: dose: 25.0 mg/kg/injection, schedule: Q04DX003 (ip), vehicle: saline with Tween-80 109 % of control | dose: 50.0 mg/kg/injection, schedule: Q04DX003 (ip), vehicle: saline with Tween-80 114 % of control | [4] 88 % of control

CC(=O)NC1C(OC(C)=O)OC(CS[As](C)C)C(OC(C)=O)C1OC(C)=O (configuration not stated)
inactive: [6] 118 % of control | [11] 111 % of control

CC1[C@@H]2CC=C3[C@H]4CCC5Cc6nc7c(nc6C[C@@]5(C)C4(O)CC(=O)[C@]32CO[C@]12OC(C)(C)CC2O)CC1CC[C@@H]2C3=C[C@H]4O[C@@]5(O[C@@](C)(CO)C[C@@H]5O)C(C)[C@@]4(O)[C@]3(C)[C@@H](O)CC2[C@]1(C)C7 (some centres not stated)
inactive: dose: 10.0 micrograms/kg/injection, schedule: Q01DX005 (ip), vehicle: saline + alcohol 114 % of control and 117 % of control | dose: 20.0 micrograms/kg/injection, schedule: Q01DX005 (ip), vehicle: saline + alcohol 121 % of control

O=C(O)c1cc2ccccc2c2c1C(=O)c1ccccc1-2
inactive: [11] 90 % of control | [3] 95 % of control | [5] 91 % of control

CC1(C)CC(Nc2ccccc2)=CC(=S)N1
inactive: [8] 100 % of control | [9] 103 % of control | [10] 100 % of control

O=C(Nc1ccc(F)cc1)N1CCOCC1
inactive: dose: 60.0 mg/kg/injection, schedule: Q01DX005 (ip), vehicle: saline with Tween-80 98 % of control | dose: 120.0 mg/kg/injection, schedule: Q01DX005 (ip), vehicle: saline with Tween-80 93 % of control | dose: 240.0 mg/kg/injection, schedule: Q01DX005 (ip), vehicle: saline with Tween-80 93 % of control

CC1=NNB(O)c2ccsc21
inactive: [11] 98 % of control | [3] 99 % of control | [5] 108 % of control

[Br][Pt].[NH-]CC[N-]CC[NH-]
inactive: dose: 1.56 mg/kg/injection, schedule: Q01DX009 (ip), vehicle: saline 102 % of control | dose: 3.13 mg/kg/injection, schedule: Q01DX009 (ip), vehicle: saline 100 % of control | dose: 6.25 mg/kg/injection, schedule: Q01DX009 (ip), vehicle: saline 100 % of control | [1] 97 % of control | [2] 97 % of control

CC1N/C(=C/c2ccccc2)C(=O)O1 (configuration not stated)
inactive: [6] 106 % of control | [11] 110 % of control | [3] 105 % of control and 123 % of control | [5] 117 % of control and 96 % of control
